Legend:
T(CD8+) cells = assay: Flow cytometry of CD8+ T cells in spleen and lung after immunization; format: in vivo, C57BL/6 ordinary mice; conditions: after 14 days of immunization
Source text: Experimental animals: C57BL/6 ordinary mice, male, weighing 20-22 grams, 7-8 weeks old, purchased from Shanghai SLAC Laboratory Animal Co. Ltd.
The mice were randomly divided into 8 groups (10 mice in each group). The 8 groups were as listed follows: A: Negative control group (isotype control antibody group); B: blank group; C: cyclic dinucleotide group; D: [Li2(cGAMP)] group; E: [Mg(cGAMP)] group; F: [Zn(cGAMP)] group; G: [Mn(cGAMP)] group; and H: [Fe(cGAMP)] group. Isotype control flow antibody was purchased from eBiosciences, antibody magnetic strain was purchased from Militeny Biotech, and flow cytometry was purchased from BD company. After 14 days of immunization (immunization process was the same as that in the Example 12), spleens and lung tissues of the mice were collected, respectively mashed, filtered through 40 micron pores followed by 1000 rpm of centrifugation for 10 min to solate unlysed immune cells. Dendritic cells (DCs) (CD40\CD80\CD86\MHCII), T(CD8+) cells were separated, and added with corresponding FAC antibodies (diluted with Fluorescence-Activated Cell Sorting (FACS) buffer). Isotype control antibody was used as negative control. After antibody addition, the DCs and T (CD8+) cells were incubate for 1 h, centrifuged and washed by phosphate buffer saline (PBS) followed by analysis by the flow cytometry to sort suitable cells. Fluorescence intensity (MFI) of sorted cells was measured.

[1] = system: mouse breast cancer cell line 4T1; assay: Subcutaneously transplanted 4T1 tumor growth inhibition; format: in vivo, BALB/c ordinary mice; conditions: 4T1 in BALB/c mice; 10 mg/kg intraperitoneal once every 2 days for 20 days
Source text: (§1) Experimental animals: BALB/c ordinary mice and C57BL/6 ordinary mice, male, weighing 20-22 grams, 7-8 weeks old, purchased from Shanghai SLAC Laboratory Animal Co. Ltd.
(§2) Tumour cell line: mouse colorectal cancer cell line CT26 and mouse breast cancer cell line 4T1, both purchased from Chinese Academy of Sciences Cell Bank.
(§3) Establishment and intervention of tumor model mice: cells were subjected to culture and subculture, collected in a logarithmic phase and prepared as 1.0×10^7/mL of cell suspension. 0.2 mL of the cell suspension was injected armpits of forelegs of the mice (with a cell number of 2.0×10^6), and tumor transplantation was successful in about 7 days. Mice with successful tumor transplantation were randomly divided into 7 groups (10 mice in each group). The 7 groups were listed as follows: A: negative control group (injection with normal saline); B: positive control cGAMP group (10 mg/kg of injection); C: [Li2(cGAMP)] group (10 mg/kg of injection); D: [Mg(cGAMP)] group (10 mg/kg of injection); E: [Zn(cGAMP)] group (10 mg/kg of injection); F: [Mn(cGAMP)] group (10 mg/kg of injection); and G: [Fe(cGAMP)] group (10 mg/kg of injection). The mice with successful tumor transplantation were subjected to administration by intraperitoneal injection with a volume of 200 μL per mice once every 2 days for 20 days. After 20 days, the mice with successful tumor transplantation were killed, and the tumor were weighed. A formula of inhibitory rate of tumor was as represented as inhibitory rate of tumor=[1−average tumor weight of experimental group/average tumor weight of the negative control group]×100%.
(§4) According to the establishment of tumor model mice, the mouse colorectal cancer cell line CT26 was cultured and transplanted to the BALB/c ordinary mice, and the mouse breast cancer cell line 4T1 was cultured and transplanted to the BALB/c ordinary mice.
(§5) Statistical analysis: data was expressed as mean±standard deviation and processed by the SPSS10.0 software. One-way ANOVA was used to detect and compare significance of tumor weights in each group.

[2] = system: mouse colorectal cancer cell line CT26; assay: Subcutaneously transplanted CT26 tumor growth inhibition; format: in vivo, BALB/c ordinary mice; conditions: CT26 in BALB/c mice; 10 mg/kg intraperitoneal once every 2 days for 20 days
Source text: as §1, §2, §3, §4, §5

[3] = system: ICR mice with ischemic cerebrovascular injury; assay: MCAO ischemic cerebrovascular injury model, Zea longa behavioral score; format: in vivo; design: key: Zea longa: 0 = no neurological deficit, 4 = no spontaneous walking; conditions: 10 mg/kg intraperitoneal, Zea longa 5-point score
Method: Experimental animals: healthy male Institute of Cancer Research (ICR) mice, weighing 18-20 grams, purchased from Shanghai SLAC Laboratory Animal Co. Ltd, with quality certificate No. (SCXK (Shanghai) 2007-0005), and kept in clean animal houses.
Mouse model: an ischemic cerebrovascular injury model was prepared by a middle cerebral artery occlusion (MCAO) method to verify therapeutic effect of the cyclic dinucleotide metal compounds on ischemic cerebrovascular diseases in the experimental animals.
Experimental method: the ICR mice were anesthetized with 10 wt. % of chloral hydrate by intraperitoneal injection, a mid-cervical incision was made to isolate and ligate a proximal segment, a carotid artery and a branch vessel of a right common carotid artery. A right internal carotid artery was isolated, a pterygoid artery was isolated down along the right internal carotid artery followed by root ligation. A wire was prepared on the proximal segment, and an arterial clip was placed on a distal segment. An incision was made at a branch of the right common carotid artery, and a nylon wire was tied in. A monofilament entered the internal carotid artery, a cranium to an anterior cerebral artery to block all sources of blood flow in a middle cerebral artery. The arterial clip was removed, and the wire prepared on the proximal segment was tied in followed by skin suture. The experimental animals were subjected to cage culture after operation. 2 h after the ischemia, the experimental animals were subjected to abdominal administration by injection, and the nylon wire was removed for reperfusion. 8 h after the reperfusion, the experimental animals were subjected to re-administration. After the operation, behavioral score was performed using a single-blind method with reference to the Zea longa 5-point scoring system, which was shown as follows: 0 point, normal performance with no neurological deficits; 1 point, contralateral forepaws could not fully extend; 2 points, circling to the opposite side when walking; 3 points, falling to the opposite side; 4 points, no spontaneous walking and loss of consciousness.
In the experiment, the ICR mice were divided into 7 groups (10 mice in each group). The 7 groups were listed as follows: A: AD model group, as a negative control group (administration: normal saline); B: cGAMP group, as a positive control group (administration: cyclic dinucleotide); C: [Li2(cGAMP)] group (administration: lithium cyclic dinucleotide prepared in Example 1); D: [Mg(cGAMP)] group (administration: magnesium cyclic dinucleotide prepared in Example 2); E: [Zn(cGAMP)] group (administration: zinc cyclic dinucleotide prepared in Example 5); F: [Mn(cGAMP)] group (administration: manganese cyclic dinucleotide prepared in Example 3); G: [Fe(cGAMP)] group (administration: ferrous cyclic dinucleotide prepared in Example 4); where a preparation method for administration in groups C-G were as follows. Powders prepared in the groups C-G were prepared to solutions of required concentration with normal saline. The administration dosage of every group was 10 mg/kg. And the ICR mice were administered by intraperitoneal injection. The ICR mice were administered once after 2 h of ischemia, then the nylon wire was removed for reperfusion. 8 h after the reperfusion, the ICR mice were administered once. After 24 h, the ICR mice were administered once a day for 7 consecutive days.

SMILES | Lung (% CD8 + T cells) (T(CD8+) cells) [%] | Spleen (% CD8 + T cells) (T(CD8+) cells) [%] | Average inhibitory rate of tumor [1] [%] | Average tumor weight [1] [g] | Average inhibitory rate of the tumor [2] [%] | Average tumor weight [2] [g] | Score (7 h after operation) [3] | Score (24 h after operation) [3]
Nc1nc2c(ncn2[C@@H]2O[C@@H]3COP(=O)([O-])O[C@H]4[C@@H](O)[C@H](n5cnc6c(N)ncnc65)O[C@@H]4COP(=O)([O-])O[C@@H]2[C@@H]3O)c(=O)[nH]1.[Zn+2] [[Zn(cGAMP)], zinc cyclic dinucleotide] | 1.6 ± 0.2 | 8.6 ± 1.8 | 89.1 | 0.212 ± 0.135 | 88.9 | 0.201 ± 0.123 | 1.31 ± 0.15 | 1.57 ± 0.38
Nc1nc2c(ncn2C2OC3COP(=O)([O-])OC4C(COP(=O)([O-])OC2C3O)OC(n2cnc3c(N)ncnc32)C4O)c(=O)[nH]1.[Mn+2] (stereo not drawn) [[Mn(cGAMP)], manganese cyclic dinucleotide] | 0.8 ± 0.3 | 7.5 ± 1.3 | 84.9 | 0.287 ± 0.116 | 85.8 | 0.258 ± 0.105 | 1.38 ± 0.27 | 1.62 ± 0.39
Nc1nc2c(ncn2[C@@H]2O[C@@H]3COP(=O)([O-])O[C@H]4[C@@H](O)[C@H](n5cnc6c(N)ncnc65)O[C@@H]4COP(=O)([O-])O[C@@H]2[C@@H]3O)c(=O)[nH]1.[Li+].[Li+] [[Li2(cGAMP)], lithium cyclic dinucleotide] | 0.6 ± 0.2 | 3.1 ± 0.3 | 61.5 | 0.712 ± 0.146 | 63.0 | 0.675 ± 0.163 | 1.49 ± 0.26 | 1.82 ± 0.19
Nc1nc2c(ncn2[C@@H]2O[C@@H]3COP(=O)(O)O[C@H]4[C@@H](O)[C@H](n5cnc6c(N)ncnc65)O[C@@H]4COP(=O)(O)O[C@@H]2[C@@H]3O)c(=O)[nH]1 [cGAMP, 2′3′-cGAMP, reference compound] | 0.5 ± 0.2 | 2.2 ± 0.2 | 58.8 | 0.761 ± 0.157 | 61.0 | 0.712 ± 0.145 | 1.67 ± 0.41 | 2.15 ± 0.32
Nc1nc2c(ncn2[C@@H]2O[C@@H]3COP(=O)([O-])O[C@H]4[C@@H](O)[C@H](n5cnc6c(N)ncnc65)O[C@@H]4COP(=O)([O-])O[C@@H]2[C@@H]3O)c(=O)[nH]1.[Mg+2] [[Mg(cGAMP)], magnesium cyclic dinucleotide] | 1.7 ± 0.3 | 6.2 ± 0.6 | 63.2 | 0.679 ± 0.183 | 65.2 | 0.635 ± 0.178 | 1.09 ± 0.18 | 1.18 ± 0.24
Nc1nc2c(ncn2C2OC3COP(=O)([O-])OC4C(COP(=O)([O-])OC2C3O)OC(n2cnc3c(N)ncnc32)C4O)c(=O)[nH]1.[Fe+2] (stereo not drawn) [[Fe(cGAMP)], ferrous cyclic dinucleotide] | 0.7 ± 0.3 | 6.9 ± 1.2 | 83.6 | 0.301 ± 0.116 | 83.5 | 0.301 ± 0.112 | 1.41 ± 0.29 | 1.67 ± 0.35
